Key:
Experiment in all cases: relative viability (nuclei count vs DMSO), 5 days (fraction); higher = more cells survive
Carboplatin + Trametinib = compound: C1CC(C1)(C(=O)O)C(=O)O.[NH2-].[NH2-].[Pt+2] [Carboplatin] + CC(=O)Nc1cccc(-n2c(=O)n(C3CC3)c(=O)c3c(Nc4ccc(I)cc4F)n(C)c(=O)c(C)c32)c1 [Trametinib] (partner 0.02 µM)
Summary of the method: (§1)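 Medians of duplicate plates are given as relative viability. That measure is the nuclei count in treated wells divided by the count in vehicle wells. Counts were taken on 4× images of lung cancer cell lines in 1536-well plates, 5 days after pin-tool dosing the day after seeding with one drug alone or a fixed anchor-drug dose plus five library-drug doses (not always all listed) in √10 steps.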

Carboplatin + Pemetrexed = compound: C1CC(C1)(C(=O)O)C(=O)O.[NH2-].[NH2-].[Pt+2] [Carboplatin] + Nc1nc2[nH]cc(CCc3ccc(C(=O)N[C@@H](CCC(=O)O)C(=O)O)cc3)c2c(=O)[nH]1 [Pemetrexed] (partner 0.2 µM)
Summary of the method: as §1

GSK126 + Luminespib = compound: CC[C@H](C)N1C=C(C2=C(C=C(C=C21)C3=CN=C(C=C3)N4CCNCC4)C(=O)NCC5=C(C=C(NC5=O)C)C)C [GSK126] + CCNC(=O)c1noc(-c2cc(C(C)C)c(O)cc2O)c1-c1ccc(CN2CCOCC2)cc1 [Luminespib] (partner 0.01 µM)
Summary of the method: as §1

GSK126 + AZD7762 = compound: CC[C@H](C)N1C=C(C2=C(C=C(C=C21)C3=CN=C(C=C3)N4CCNCC4)C(=O)NCC5=C(C=C(NC5=O)C)C)C [GSK126] + NC(=O)Nc1cc(-c2cccc(F)c2)sc1C(=O)N[C@H]1CCCNC1 [AZD7762] (partner 0.2 µM)
Summary of the method: as §1

| Cell Line | relative viability (Carboplatin + Trametinib; first compound 0.08 µM) | relative viability (Carboplatin + Trametinib; first compound 0.253 µM) | relative viability (Carboplatin + Trametinib; first compound 0.8 µM) | relative viability (Carboplatin + Trametinib; first compound 2.53 µM) | relative viability (Carboplatin + Trametinib; first compound 8 µM) | relative viability (Carboplatin + Pemetrexed; first compound 0.08 µM) | relative viability (Carboplatin + Pemetrexed; first compound 0.253 µM) | relative viability (Carboplatin + Pemetrexed; first compound 0.8 µM) | relative viability (Carboplatin + Pemetrexed; first compound 2.53 µM) | relative viability (Carboplatin + Pemetrexed; first compound 8 µM) | relative viability (GSK126 + Luminespib; first compound 0.08 µM) | relative viability (GSK126 + Luminespib; first compound 0.253 µM) | relative viability (GSK126 + Luminespib; first compound 0.8 µM) | relative viability (GSK126 + Luminespib; first compound 2.53 µM) | relative viability (GSK126 + Luminespib; first compound 8 µM) | relative viability (GSK126 + AZD7762; first compound 0.08 µM) | relative viability (GSK126 + AZD7762; first compound 0.253 µM) | relative viability (GSK126 + AZD7762; first compound 0.8 µM) | relative viability (GSK126 + AZD7762; first compound 2.53 µM) | relative viability (GSK126 + AZD7762; first compound 8 µM) |
| --- | --- | --- | --- | --- | --- | --- | --- | --- | --- | --- | --- | --- | --- | --- | --- | --- | --- | --- | --- | --- |
| NCI-H1395 | 1.05 | 1.03 | 1.01 | 0.742 | 0.618 | 1.02 | 0.983 | 0.814 | 0.61 | 0.534 | 0.64 | 0.62 | 0.606 | 0.689 | 0.545 | 0.392 | 0.381 | 0.399 | 0.399 | 0.342 |
| NCI-H2347 | 0.319 | 0.271 | 0.244 | 0.287 | 0.265 | 0.432 | 0.452 | 0.403 | 0.407 | 0.525 | 0.757 | 0.701 | 0.308 | 0.392 | 0.267 | 0.757 | 0.707 | 0.711 | 0.723 | 0.783 |
| LXF-289 | 0.671 | 0.717 | 0.674 | 0.712 | 0.656 | 0.981 | 0.998 | 0.902 | 0.895 | 0.744 | 0.736 | 0.652 | 0.574 | 0.661 | 0.747 | 1.16 | 1.11 | 0.956 | 1.1 | 1.09 |
| EMC-BAC-2 | 0.899 | 0.825 | 0.924 | 0.832 | 0.686 | 0.426 | 0.42 | 0.435 | 0.418 | 0.414 | 1.19 | 1.17 | 1.17 | 1.11 | 1.24 | 1.05 | 1.1 | 1.1 | 1.09 | 1.04 |
| LC-2-ad | 0.91 | 0.934 | 0.923 | 0.882 | 0.8 | 0.278 | 0.28 | 0.294 | 0.308 | 0.272 | 1 | 1.19 | 0.948 | 1.04 | 1.01 | 0.851 | 0.866 | 0.858 | 0.953 | 0.92 |
| NCI-H647 | 0.533 | 0.483 | 0.413 | 0.469 | 0.457 | 0.176 | 0.18 | 0.172 | 0.203 | 0.143 | 0.358 | 0.193 | 0.144 | 0.202 | 0.124 | 0.465 | 0.495 | 0.497 | 0.507 | 0.371 |
| NCI-H1734 | 0.69 | 0.718 | 0.659 | 0.637 | 0.501 | 0.423 | 0.422 | 0.495 | 0.408 | 0.419 | 0.179 | 0.231 | 0.117 | 0.176 | 0.213 | 0.597 | 0.497 | 0.526 | 0.576 | 0.531 |
| LOU-NH91 | 0.786 | 0.792 | 0.763 | 0.803 | 0.775 | 0.348 | 0.378 | 0.372 | 0.381 | 0.378 | 0.303 | 0.337 | 0.325 | 0.364 | 0.357 | 0.789 | 0.737 | 0.714 | 0.822 | 0.727 |
